For 13 compounds, IC50 results are on record in US20260085053A1, “BENZOFURAN DERIVATIVES AS SIK INHIBITORS AND THE USE THEREOF” (BEONE MEDICINES I GMBH, priority 2023, published 2026).

The structures appear in SMILES notation.

For assay [1], the target named is T1, SIK2 kinase (full length, Thermo Fisher) (Homo sapiens, UniProt Q9H0K1).
T1 construct: SIK2 kinase (full length, Thermo Fisher); purchased Thermo Fisher
Kind of assay: Biochemical activities determination for SIK2 protein (TR-FRET). To be noted: 80 uM ATP, 0.5 μM substrate. As to the method: 2. Biochemical Activities Determination for SIK2 Protein
(§1) Compounds were tested for inhibition of SIK2 kinase (full length, Thermo Fisher) in assays based on the time-resolved fluorescence-resonance energy transfer (TR-FRET) methodology. The assays were carried out in 384-well low volume white plates in a reaction mixture containing SIK2 kinase, 80 uM ATP, 0.5 μM SIK1 substrate and 0-10 μM compound in buffer containing 25 mM Tris, 0.01% Trition X-100, 0.5 mM EGTA, 5 mM MgCl2, 2.5 mM DTT, pH=7.5. The kinase was incubated with compounds for 60 minutes at room temperature and the reaction was initiated by the addition of ATP and STK1 substrate. After reaction at room temperature for 180 minutes, an equal volume of stop/detection solution was added according to the manufacture's instruction (CisBio Bioassays). The stop/detection solution contained STK Antibody-Cryptate and XL665-conjugated streptavidin (Cat: 62ST1PEC, Cisbio) in Detection Buffer (Cat: 62SDBRDF, Cisbio). Plates were sealed and incubated at room temperature for overnight, and the TR-FRET signals (ratio of fluorescence emission at 665 nm over emission at 620 nm with excitation at 337 nm wavelength) were recorded on a PHERAstar FS plate reader (BMG Labtech). Phosphorylation of STK1 substrate led to the binding of STK Antibody-Cryptate to the biotinylated STK1 substrate, which places fluorescent donor (Eu^3+ crypate) in close proximity to the accepter (Streptavidin-XL665), thus resulting in a high degree of fluorescence resonance energy transfer from the donor fluorophore (at 620 nm) to the acceptor fluorophore (at 665 nm). […] The IC50 for each compound was derived from fitting the data to the four-parameter logistic equation by Dotmatics.

Assay [2] has as its target T2, SIK1 kinase (aa1-303, Thermo Fisher) (Homo sapiens, UniProt P57059).
T2 construct: SIK1 kinase (aa1-303, Thermo Fisher); purchased Thermo Fisher
Kind of assay: Biochemical activities determination for SIK1 protein (TR-FRET). The note with it: 110 uM ATP, 0.5 μM STK1 substrate. As to the method: 1. Biochemical Activities Determination for SIK1 Protein
as §1, with “of SIK1” for “of SIK2”, “kinase (aa1-303,” for “kinase (full length,”, “containing SIK1” for “containing SIK2”, “kinase, 110” for “kinase, 80”, “μM STK1” for “μM SIK1”, “biotinylated […]” for “biotinylated STK1”

Assay [3] addresses T3, SIK3 kinase (aa59-365, Thermo Fisher) (Homo sapiens, UniProt Q9Y2K2).
T3 construct: SIK3 kinase (aa59-365, Thermo Fisher); purchased Thermo Fisher
Kind of assay: Biochemical activities determination for SIK3 protein (TR-FRET). The note with it: 125 uM ATP, 0.5 μM STK1 substrate. The procedure:
3. Biochemical Activities Determination for SIK3 Protein
Compounds were tested for inhibition of SIK3 kinase (aa59-365, Thermo Fisher) in assays based on the time-resolved fluorescence-resonance energy transfer (TR-FRET) methodology. The assays were carried out in 384-well low volume white plates in a reaction mixture containing SIK3 kinase, 125 uM ATP, 0.5 μM STK1 substrate and 0-10 μM compound in buffer containing 25 mM Tris, 0.01% Trition X-100, 0.5 mM EGTA, 5 mM MgCl2, 2.5 mM DTT, PH=7.5. The kinase was incubated with compound for 60 minutes at room temperature and the reaction was initiated by the addition of ATP and STK1 substrate. After reaction at room temperature for 180 minutes, an equal volume of stop/detection solution was added according to the manufacture's instruction (CisBio Bioassays). The stop/detection solution contained STK Antibody-Cryptate and XL665-conjugated streptavidin (Cat: 62ST1PEC, Cisbio) in Detection Buffer (Cat: 62SDBRDF, Cisbio). Plates were sealed and incubated at room temperature for overnight, and the TR-FRET signals (ratio of fluorescence emission at 665 nm over emission at 620 nm with excitation at 337 nm wavelength) were recorded on a PHERAstar FS plate reader (BMG Labtech). Phosphorylation of STK1 substrate led to the binding of STK Antibody-Cryptate to the biotinylated STK1 substrate, which places fluorescent donor (Eu^3+ crypate) in close proximity to the accepter (Streptavidin-XL665), thus resulting in a high degree of fluorescence resonance energy transfer from the donor fluorophore (at 620 nm) to the acceptor fluorophore (at 665 nm). […] The IC50 for each compound was derived from fitting the data to the four-parameter logistic equation by Dotmatics.

T1 sequence (Q9H0K1 whole entry): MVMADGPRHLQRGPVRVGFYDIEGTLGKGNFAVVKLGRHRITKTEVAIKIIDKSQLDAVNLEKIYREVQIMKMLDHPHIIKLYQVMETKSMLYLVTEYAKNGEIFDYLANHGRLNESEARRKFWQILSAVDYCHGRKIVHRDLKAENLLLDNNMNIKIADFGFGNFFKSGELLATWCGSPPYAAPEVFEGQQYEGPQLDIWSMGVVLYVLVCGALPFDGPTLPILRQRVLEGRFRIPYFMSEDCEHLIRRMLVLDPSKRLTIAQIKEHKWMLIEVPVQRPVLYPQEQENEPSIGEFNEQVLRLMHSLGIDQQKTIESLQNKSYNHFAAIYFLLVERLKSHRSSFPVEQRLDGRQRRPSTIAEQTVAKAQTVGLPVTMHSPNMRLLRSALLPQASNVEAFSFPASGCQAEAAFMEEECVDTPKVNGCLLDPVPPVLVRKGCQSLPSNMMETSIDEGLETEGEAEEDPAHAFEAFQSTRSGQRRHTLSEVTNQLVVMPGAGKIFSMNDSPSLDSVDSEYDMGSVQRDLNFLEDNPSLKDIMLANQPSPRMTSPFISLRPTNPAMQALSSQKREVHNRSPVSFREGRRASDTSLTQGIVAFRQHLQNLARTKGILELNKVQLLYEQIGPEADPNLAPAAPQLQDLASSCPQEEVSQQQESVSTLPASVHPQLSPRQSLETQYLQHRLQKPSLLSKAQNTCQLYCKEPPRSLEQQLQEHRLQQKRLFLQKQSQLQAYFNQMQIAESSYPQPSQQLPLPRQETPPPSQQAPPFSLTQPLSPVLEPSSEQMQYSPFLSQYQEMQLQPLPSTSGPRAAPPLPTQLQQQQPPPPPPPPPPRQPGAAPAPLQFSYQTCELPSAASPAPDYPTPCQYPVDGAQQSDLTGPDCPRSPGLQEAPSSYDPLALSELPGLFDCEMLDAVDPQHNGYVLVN
T2 sequence (P57059 1-303): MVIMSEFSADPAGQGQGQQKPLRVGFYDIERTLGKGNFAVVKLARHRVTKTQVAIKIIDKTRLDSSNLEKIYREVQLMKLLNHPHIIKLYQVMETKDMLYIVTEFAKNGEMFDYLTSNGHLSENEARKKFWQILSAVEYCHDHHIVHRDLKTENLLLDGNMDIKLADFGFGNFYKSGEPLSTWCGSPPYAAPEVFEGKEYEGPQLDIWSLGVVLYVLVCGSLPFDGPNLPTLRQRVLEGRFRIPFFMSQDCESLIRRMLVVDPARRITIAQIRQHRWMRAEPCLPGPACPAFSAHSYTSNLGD
T3 sequence (Q9Y2K2 59-365): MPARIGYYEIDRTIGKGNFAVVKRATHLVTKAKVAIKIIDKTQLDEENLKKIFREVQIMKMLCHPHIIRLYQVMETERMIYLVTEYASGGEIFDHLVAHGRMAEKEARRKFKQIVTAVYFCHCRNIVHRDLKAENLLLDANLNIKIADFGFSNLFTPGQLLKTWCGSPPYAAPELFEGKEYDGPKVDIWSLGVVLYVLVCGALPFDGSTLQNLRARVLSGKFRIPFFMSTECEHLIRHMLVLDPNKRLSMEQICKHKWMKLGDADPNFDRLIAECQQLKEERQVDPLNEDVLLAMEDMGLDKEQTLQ

For the compound `O=C1c2c(cc(-c3coc4cc(-c5cnn(C6CCOCC6)c5)ccc34)cc2OC(F)F)CCN1CC(F)(F)F` [Compound 41, 8-(difluoromethoxy)-6-(6-(1-(tetrahydro-2H-pyran-4-yl)-1H-pyrazol-4-yl)benzofuran-3-yl)-2-(2,2,2-trifluoroethyl)-3,4-dihydroisoquinolin-1 (2H)-one], the values for the IC50 in assay [1], in assay [2] and in assay [3] were 33 nM, 1710 nM and 69 nM, respectively.
The corresponding values for `O=C1c2c(cc(-c3coc4cc(-c5cnn(C6CNC6)c5)ccc34)cc2OC(F)F)CCN1CC(F)(F)F` [Compound 42, 6-(6-(1-(azetidin-3-yl)-1H-pyrazol-4-yl)benzofuran-3-yl)-8-(difluoromethoxy)-2-(2,2,2-trifluoroethyl)-3,4-dihydroisoquinolin-1 (2H)-one] are 25 nM, 1590 nM and 115 nM.
The corresponding values for `O=C1c2c(cc(-c3coc4cc(-c5cnn(C6CCNCC6)c5)ccc34)cc2OC(F)F)CCN1CC(F)(F)F` [Compound 43, 8-(difluoromethoxy)-6-(6-(1-(piperidin-4-yl)-1H-pyrazol-4-yl)benzofuran-3-yl)-2-(2,2,2-trifluoroethyl)-3,4-dihydroisoquinolin-1 (2H)-one] are 8 nM, 676 nM and 57 nM.
The corresponding values for `CN1CC(n2cc(-c3ccc4c(-c5cc6c(c(OC(F)F)c5)C(=O)N(CC(F)(F)F)CC6)coc4c3)cn2)C1` [Compound 44, 8-(difluoromethoxy)-6-(6-(1-(1-methylazetidin-3-yl)-1H-pyrazol-4-yl)benzofuran-3-yl)-2-(2,2,2-trifluoroethyl)-3,4-dihydroisoquinolin-1 (2H)-one] are 5.2 nM, 538 nM and 45 nM.
As to `N#CCCN1CC(n2cc(-c3ccc4c(-c5cc6c(c(OC(F)F)c5)C(=O)N(CC(F)(F)F)CC6)coc4c3)cn2)C1` [Compound 45, 3-(3-(4-(3-(8-(difluoromethoxy)-1-oxo-2-(2,2,2-trifluoroethyl)-1,2,3,4-tetrahydroisoquinolin-6-yl)benzofuran-6-yl)-1H-pyrazol-1-yl)azetidin-1-yl) propanenitrile], the half-inhibitory concentration (IC50) in assay [1] worked out at 9.8 nM; in assay [2], 560 nM; in assay [3] it was 28 nM.
The like results for `CN1CCC(n2cc(-c3ccc4c(-c5cc6c(c(OC(F)F)c5)C(=O)N(CC(F)(F)F)CC6)coc4c3)cn2)CC1` [Compound 46, 8-(difluoromethoxy)-6-(6-(1-(1-methylpiperidin-4-yl)-1H-pyrazol-4-yl)benzofuran-3-yl)-2-(2,2,2-trifluoroethyl)-3,4-dihydroisoquinolin-1 (2H)-one] were, in that order, 7.8 nM, 430 nM and 36.1 nM.
The corresponding values for `CN1CCC(n2cc(-c3ccc4c(-c5cc6c(c(OC(F)F)c5)C(=O)N(CC(F)(F)F)CC6)coc4c3)cn2)C1` (stereo not drawn) [Compound 47, 8-(difluoromethoxy)-6-(6-(1-(1-methylpyrrolidin-3-yl)-1H-pyrazol-4-yl)benzofuran-3-yl)-2-(2,2,2-trifluoroethyl)-3,4-dihydroisoquinolin-1 (2H)-one] are 3 nM, 335 nM and 33 nM.
The like results for `O=C1c2c(cc(-c3coc4cc(-c5cnn(C6CCNC6)c5)ccc34)cc2OC(F)F)CCN1CC(F)(F)F` (stereo not drawn) [Compound 48, 8-(difluoromethoxy)-6-(6-(1-(pyrrolidin-3-yl)-1H-pyrazol-4-yl)benzofuran-3-yl)-2-(2,2,2-trifluoroethyl)-3,4-dihydroisoquinolin-1 (2H)-one] were, in that order, 11 nM, 524 nM and 63 nM.
Consider `COc1cc(-c2coc3cc(-c4cnn(C5CCOC5)c4)ccc23)cc2c1C(=O)N(CC(F)(F)F)CC2` (stereo not drawn) [Compound 49, 8-methoxy-6-(6-(1-(tetrahydrofuran-3-yl)-1H-pyrazol-4-yl)benzofuran-3-yl)-2-(2,2,2-trifluoroethyl)-3,4-dihydroisoquinolin-1 (2H)-one], for which the IC50 worked out at 11 nM in assay [1], 337 nM in assay [2] and 25 nM in assay [3].
For `COc1cc(-c2coc3cc(-c4cnn(C5CCOCC5)c4)ccc23)cc2c1C(=O)N(CC(F)(F)F)CC2` [Compound 50, 8-methoxy-6-(6-(1-(tetrahydro-2H-pyran-4-yl)-1H-pyrazol-4-yl)benzofuran-3-yl)-2-(2,2,2-trifluoroethyl)-3,4-dihydroisoquinolin-1 (2H)-one], the values for the 50% inhibitory concentration (IC50) in assay [1], in assay [2] and in assay [3] were 17 nM, 347 nM and 34 nM, respectively.
The corresponding values for `COc1cc(-c2coc3cc(-c4cnn(C5CCN(C)C5)c4)ccc23)cc2c1C(=O)N(CC(F)(F)F)CC2` (stereo not drawn) [Compound 51, 8-methoxy-6-(6-(1-(1-methylpyrrolidin-3-yl)-1H-pyrazol-4-yl)benzofuran-3-yl)-2-(2,2,2-trifluoroethyl)-3,4-dihydroisoquinolin-1 (2H)-one] are 3.7 nM, 317 nM and 26 nM.
The corresponding values for `COc1cc(-c2coc3cc(-c4cnn(C5CCN(C)CC5)c4)ccc23)cc2c1C(=O)N(CC(F)(F)F)CC2` [Compound 52, 8-methoxy-6-(6-(1-(1-methylpiperidin-4-yl)-1H-pyrazol-4-yl)benzofuran-3-yl)-2-(2,2,2-trifluoroethyl)-3,4-dihydroisoquinolin-1 (2H)-one] are 4.9 nM, 212 nM and 23 nM.
The corresponding values for `COc1cc(-c2coc3cc(-c4cnn(C5CN(C)C5)c4)ccc23)cc2c1C(=O)N(CC(F)(F)F)CC2` [Compound 53, 8-methoxy-6-(6-(1-(1-methylazetidin-3-yl)-1H-pyrazol-4-yl)benzofuran-3-yl)-2-(2,2,2-trifluoroethyl)-3,4-dihydroisoquinolin-1 (2H)-one] are 2.8 nM, 294 nM and 19 nM.
